Test results taken from patent US20200276100A1, “PHOTOPROTECTIVE COMPOSITIONS CONTAINING MALASSEZIA-DERIVED COMPOUNDS AND/OR CHEMICAL ANALOGS THEREOF” (priority 2018, published 2020).
Read-outs that look alike come from different tables or passages of the source.

What was measured:
[1] = tested on: COL3A1 (Collagen, type III, alpha 1); assay: Differential gene fold expression analysis of skin biopsies; format: in vivo, human; conditions: RNA, biopsy of treated vs untreated skin after 6 weeks of application, parentheses = not statistically significant, negative = decrease
Source text: (§1) Differential gene fold expression analysis was used to analyze Malassezin and compound AB17151. Biopsies from human subjects were taken after 6 weeks of application of compounds. Two participants applied AB17151 and one participant applied Malassezin. Biopsies were taken of treated skin and, as a control and for comparison, from untreated skin.
(§2) In the Table, numbers in parentheses indicate changes that are not statistically significant. All numbers indicate fold change in expression. Negative values indicate decreases in activity. A minus-3-fold change in activity, for example, means that the value changed by minus-3-fold, meaning it changed to ⅓ of its original value.

[2] = tested on: PCOLCE2 (Pro-Collagen C endopeptidase enhancer 2); assay: as above; format: in vivo, human; conditions: RNA, biopsy of treated vs untreated skin after 6 weeks of application, parentheses = not statistically significant, negative = decrease
Source text: as §1, §2

[3] = tested on: COL1A1 (Collagen, type 1, alpha 1); assay: as above; format: in vivo, human; conditions: RNA, biopsy of treated vs untreated skin after 6 weeks of application; participant; parentheses = not statistically significant; negative = decrease
Source text: as §1, §2

[4] = tested on: COL5A1 (Collagen, type V, alpha 1); assay: as above; format: in vivo, human; conditions: RNA, biopsy of treated vs untreated skin after 6 weeks of application; participant; parentheses = not statistically significant; negative = decrease
Source text: as §1, §2

[5] = tested on: COL5A2 (Collagen, type V, alpha 2); assay: as above; format: in vivo, human; conditions: RNA, biopsy of treated vs untreated skin after 6 weeks of application; participant; parentheses = not statistically significant; negative = decrease
Source text: as §1, §2

[6] = tested on: MMP7 (Matrix Metalloproteinase 7); assay: as above; format: in vivo, human; conditions: RNA, biopsy of treated vs untreated skin after 6 weeks of application; participant one; parentheses = not statistically significant; negative = decrease
Source text: as §1, §2

[7] = tested on: COL1A2 (Collagen, type 1, alpha 2); assay: as above; format: in vivo, human; conditions: RNA, biopsy of treated vs untreated skin after 6 weeks of application, parentheses = not statistically significant, negative = decrease
Source text: as §1, §2

[8] = Adverse events recording; format: in vivo, human; conditions: all visits; Malassezin 0.1%, 0.5%, 1.0% formulations twice daily to the face
Description: Evaluation: Colorimetry measurements using the Mexameter MX 18 were used at Baseline, and Weeks 2, 4, 8, 14, 18, and 22. Clinical assessments of depigmentation was performed in the treated area. Assessments were performed at Baseline, and Weeks 2, 4, 8, 14, 18, and 22. Brightening assessments included brightening of normal skin and/or severity of dyschromia, if present (see scale). Global improvement was measured at the same time intervals. At all visits any adverse events (AE) was to be recorded including itching, burning, erythema, edema, dryness, scaling or skin peeling (see rating scales). […] Positive percentages indicate increased pigmentation, which indicates darkening. “Conc.” indicates the concentration of Malassezin in the formulation administered to the subject.

[9] = tested on: subject's skin; assay: In vivo photoprotection, clinical erythema evaluation after UVB irradiation; parameters: species or system human; conditions: Malassezin 1% formulation, one Skin Type IV subject
Source text: The Malassezin 1% formulation used in this study contained the following ingredients: Water (aqua)—65.939%; Dimethyl isosorbide—20.000%; Olive Oil Glycereth-8 Esters—3.000%; Glycerin—2.991%; Coconut Alkanes—2.700%; Hydroxyethyl Acrylate/Sodium Acryloyldimethyl Taurate Copolymer—1.700%; Malassezin—1.000%; Pentylene Glycol—1.000%; Phenoxyethanol—0.640%; Coco-Caprylate/Caprate—0.300%; Caprylyl Glycol—0.200%; Chlorphenesin—0.160%; Sorbitan Isostearate—0.140%; Tocopherol—0.100%; Polysorbate 60-0.080%; and Disodium EDTA—0.050%.
A Skin Type IV […] was included in this Proof of Concept study.
A template of 6 squares was placed on the lower left back (1.5 cm×1.5 cm) of the test subject.
Twenty-four hours after irradiation, the subject returned for MED assessment.
A second right lower square was treated twice daily from day 4 to day 7, and a third medial square for one application on day 7. The product vehicle was applied for 7 days twice daily on the left back. The subject returned to the research center for irradiation on day 7. Each test site was irradiated with 120 mJ of UVB exposure. The subject returned in 24 hours for assessment of phototoxicity/photoprotection.
The subject continued the experiment, receiving Malassezin 1% for a total of 14 days. […]

[10] = tested on: fine lines and wrinkles; assay: Fine lines and wrinkles, dermatologist evaluation (Lemperle classification); format: in vivo, human; conditions: 11 subjects, 0.1%, 0.5% and 1.0% formulations pooled
Description: Malassezin formulations were evaluated for their effect on fine lines and wrinkles. In this study, human subjects with skin containing areas of hyperpigmentation were randomized to one of 3 groups. […] One mL of product (formulations detailed below) was applied to the face of subjects twice daily. Five minutes after the morning application, an SPF 50 sunscreen was applied to protect the treated areas from sun. Each subject had assessments at Baseline, 2, 4, 8, 14, 18 and 22 weeks. Treatment was ceased at 14 weeks. Week 18 and week 22 observations were to determine any return towards baseline.
Eleven subjects using the test ingredient completed week 14. […] An M.D. dermatologist with experience in evaluating fine lines and wrinkles performed evaluations on the subjects in this study and obtained the measurements tabulated below. Wrinkle assessment, classification, and evaluation were performed as described in G. Lemperle et al., A classification of facial wrinkles, Plast. Reconstr. Surg. 108: 1735 (2001), incorporated by reference herein in its entirety. For each subject, the percentage Malassezin formulation is indicated.

[11] = tested on: lines and wrinkles, skin texture, tone and firmness; assay: Subject self-assessment questionnaire; format: in vivo, human; conditions: percentage of 11 subjects with a score of 6 or 5, formulations pooled
Description: Malassezin formulations were evaluated for their effect on fine lines and wrinkles. In this study, human subjects with skin containing areas of hyperpigmentation were randomized to one of 3 groups. Product use groups included Malassezin 0.05%, 0.1%, and 1.0%. One mL of product (formulations detailed below) was applied to the face of subjects twice daily. Five minutes after the morning application, an SPF 50 sunscreen was applied to protect the treated areas from sun. Each subject had assessments at Baseline, 2, 4, 8, 14, 18 and 22 weeks. Treatment was ceased at 14 weeks. Week 18 and week 22 observations were to determine any return towards baseline.
A subject self-assessment was completed at every visit. A total number of eleven (11) subjects were asked to respond to the questions regarding the improvement (if any) in their lines and wrinkles and related skin texture, tone, and firmness. Each answer was ranked from 6 to 1, with each having the meaning: 6—Strongly agree, 5—Agree, 4—Agree somewhat, 3—Disagree somewhat, 2—Disagree, and 1—Strongly disagree. The percentage of subjects answering with a score of 6 or 5 was calculated and is presented in the data below.

[12] = cited from earlier work; for sun protection factor (SPF): 290-400 nm
[13] = tested on: skin of healthy subjects; conditions: cited from earlier work

COC(=O)c1c(C(c2c[nH]c3ccccc23)C2CC2)[nH]c2ccccc12 (centres unmarked) [AB17151]
COL3A1 fold change in expression ([1]; participant one): 2.59 fold change
COL3A1 fold change in expression ([1]; participant): 6.26 fold change
PCOLCE2 fold change in expression ([2]; participant one): 1.57 fold change
PCOLCE2 fold change in expression ([2]; participant): 1.5 fold change
COL1A1 fold change in expression [3]: 5.61 fold change
COL5A1 fold change in expression [4]: 6.1 fold change
COL5A2 fold change in expression [5]: 2.23 fold change
MMP7 fold change in expression [6]: 1.79 fold change
COL1A2 fold change in expression ([7]; participant one): 1.99 fold change
COL1A2 fold change in expression ([7]; participant): 6.97 fold change

O=Cc1c(Cc2c[nH]c3ccccc23)[nH]c2ccccc12 [Malassezin]
adverse events (itching, burning, erythema, edema, dryness, scaling or skin peeling) [8]: No AEs were recorded
COL3A1 fold change in expression ([1]; participant two): 1.7 fold change
UV-protective properties, conclusion of the Proof of Concept study [9]: UV-protective properties
Fine lines/wrinkles score, Average ([10]; Week 0 (baseline)): 2.55
Fine lines/wrinkles score, Average ([10]; Week 2, P-value 0.024 (Student's T test)): 1.82
Fine lines/wrinkles score, Average ([10]; Week 4, P-value 0.011 (Student's T test)): 1.73
Fine lines/wrinkles score, Average ([10]; Week 8, P-value 0.011 (Student's T test)): 1.73
Fine lines/wrinkles score, Average ([10]; Week 14, P-value 0.011 (Student's T test)): 1.73
Self-assessment: I have smoother skin texture ([11]; Week 2): 45.45%
Self-assessment: My Lines and wrinkles are less visible ([11]; Week 2): 36.36%
Self-assessment: My skin firmness has improved ([11]; Week 2): 36.36%
Self-assessment: My skin has a brighter tone ([11]; Week 2): 45.45%
Self-assessment: My skin looks more youthful and healthy ([11]; Week 2): 45.45%
Self-assessment: My skin texture is less coarse ([11]; Week 2): 54.55%
Self-assessment: Overall skin texture is improved ([11]; Week 2): 54.55%
Self-assessment: Overall skin tone is improved ([11]; Week 2): 54.55%
Self-assessment: I have smoother skin texture ([11]; Week 4): 63.64%
Self-assessment: My Lines and wrinkles are less visible ([11]; Week 4): 54.55%
Self-assessment: My skin firmness has improved ([11]; Week 4): 63.64%
Self-assessment: My skin has a brighter tone ([11]; Week 4): 63.64%
Self-assessment: My skin looks more youthful and healthy ([11]; Week 4): 63.64%
Self-assessment: My skin texture is less coarse ([11]; Week 4): 63.64%
Self-assessment: Overall skin texture is improved ([11]; Week 4): 63.64%
Self-assessment: Overall skin tone is improved ([11]; Week 4): 63.64%
Self-assessment: I have smoother skin texture ([11]; Week 8): 81.82%
Self-assessment: My Lines and wrinkles are less visible ([11]; Week 8): 63.64%
Self-assessment: My skin firmness has improved ([11]; Week 8): 63.64%
Self-assessment: My skin has a brighter tone ([11]; Week 8): 72.73%
Self-assessment: My skin looks more youthful and healthy ([11]; Week 8): 81.82%
Self-assessment: My skin texture is less coarse ([11]; Week 8): 72.73%
Self-assessment: Overall skin texture is improved ([11]; Week 8): 81.82%
Self-assessment: Overall skin tone is improved ([11]; Week 8): 72.73%
Self-assessment: I have smoother skin texture ([11]; Week 14): 90.91%
Self-assessment: My Lines and wrinkles are less visible ([11]; Week 14): 90.91%
Self-assessment: My skin firmness has improved ([11]; Week 14): 72.73%
Self-assessment: My skin has a brighter tone ([11]; Week 14): 81.82%
Self-assessment: My skin looks more youthful and healthy ([11]; Week 14): 72.73%
Self-assessment: My skin texture is less coarse ([11]; Week 14): 100.00%
Self-assessment: Overall skin texture is improved ([11]; Week 14): 90.91%
Self-assessment: Overall skin tone is improved ([11]; Week 14): 81.82%

O=C(c1c[nH]c2ccccc12)c1nccc2c1[nH]c1ccccc12 [pityriacitrin, Pityriacitrin]
sun protection factor (SPF) ([12]; pityriacitrin concentration 1.25% in cream): 1.4
sun protection factor (SPF) ([12]; pityriacitrin concentration 2.5% in cream): 1.5
sun protection factor (SPF) ([12]; pityriacitrin concentration 5% in cream): 1.7
UVB and UVA transmission ([12]; pityriacitrin cream formulations): decreased with increasing pityriacitrin concentrations
UV protective effect, overall ([13]; in vitro and in vivo test methods): very weak
in vivo confirmation of the SPF determined in vitro ([13]; pityriacitrin 5% cream): confirmed the validity of the SPF
